Test results taken from US20240158446A1, “CYCLIC COMPOUND HAVING SELECTIVE INHIBITORY ACTION ON KRAS OVER HRAS AND NRAS” (CHUGAI SEIYAKU KABUSHIKI KAISHA, priority 2021, published 2024).

What was measured:
[1] = molecular target: GDP-bound KRAS wild-type protein (Homo sapiens, UniProt P01116); assay: Binding to KRAS by surface plasmon resonance (SPR), Single Cycle Kinetics; details: SPR, Single Cycle Kinetics, 1:1 binding model; GDP-bound KRAS wild-type protein; read-out: KRAS KD
[2] = molecular target: GDP-bound NRAS wild-type protein (Homo sapiens, UniProt P01111); assay: Binding to NRAS by surface plasmon resonance (SPR), Single Cycle Kinetics; details: SPR; GDP-bound NRAS wild-type protein vs GDP-bound KRAS wild-type protein; KD ratio class
GDP-bound NRAS wild-type protein, sequence (P01111 whole entry): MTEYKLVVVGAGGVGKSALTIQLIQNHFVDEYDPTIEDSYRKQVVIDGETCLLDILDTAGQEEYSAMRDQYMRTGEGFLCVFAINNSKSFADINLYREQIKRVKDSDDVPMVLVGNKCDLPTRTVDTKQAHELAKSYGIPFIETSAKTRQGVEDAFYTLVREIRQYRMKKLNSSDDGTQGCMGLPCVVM

[3] = molecular target: GDP-bound HRAS wild-type protein (Homo sapiens, UniProt P01112); assay: Binding to HRAS by surface plasmon resonance (SPR), Single Cycle Kinetics; details: SPR; GDP-bound HRAS wild-type protein vs GDP-bound KRAS wild-type protein; KD ratio class
GDP-bound HRAS wild-type protein, sequence (P01112 whole entry): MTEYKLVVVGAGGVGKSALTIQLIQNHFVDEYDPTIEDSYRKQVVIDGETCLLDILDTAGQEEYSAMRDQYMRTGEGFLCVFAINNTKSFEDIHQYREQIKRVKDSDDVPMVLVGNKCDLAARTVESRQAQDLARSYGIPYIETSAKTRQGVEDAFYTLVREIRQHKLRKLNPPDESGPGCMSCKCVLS

GDP-bound KRAS wild-type protein, sequence (P01116 whole entry): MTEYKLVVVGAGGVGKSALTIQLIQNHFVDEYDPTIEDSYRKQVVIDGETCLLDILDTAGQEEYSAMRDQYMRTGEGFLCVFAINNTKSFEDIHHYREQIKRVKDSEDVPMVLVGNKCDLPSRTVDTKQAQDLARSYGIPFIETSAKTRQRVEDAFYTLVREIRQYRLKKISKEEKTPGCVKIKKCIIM

Row | Compound | Kd [1] | NRAS/KRAS (ratio of KD value for NRAS to KD value for KRAS) [2] | HRAS/KRAS (ratio of KD value for HRAS to KD value for KRAS) [3]
1 | CC[C@H](C)[C@@H]1NC(=O)[C@H](CC2CC2)N(C)C(=O)C[C@@H](C(=O)N(CC)CC)N(C)C(=O)[C@H](C2CCCC2)N(C)C(=O)C2(CC(C)(C)C2)NC(=O)[C@@H]2C[C@@H](F)CN2C(=O)[C@H](CCc2cc(F)c(C(F)(F)F)c(F)c2)NC(=O)CN(C)C(=O)[C@H](Cc2ccc(C(F)(F)F)cc2)N2CC/C=C\C[C@@H](C2=O)N(C)C(=O)CN(C)C1=O [PP1571] | 0.15 nM | A (a compound having 10 or more and less than 20 is denoted as A) | A (a compound having 10 or more and less than 20 is denoted as A)
2 | CCCOC[C@H]1C(=O)N[C@@H]([C@@H](C)CC)C(=O)N(C)CC(=O)N(C)[C@H]2C/C=C\CCN(C2=O)[C@@H](Cc2ccc(C(F)(F)F)cc2)C(=O)N(C)CC(=O)N[C@@H](CCc2cc(F)c(C(F)(F)F)c(F)c2)C(=O)N2C[C@H](OCC)C[C@H]2C(=O)NC2(CC(C)(C)C2)C(=O)N(C)[C@@H](C2CCCC2)C(=O)N(C)[C@H](C(=O)N(C)CC)CC(=O)N1C [PP1572] | 0.078 nM | A (a compound having 10 or more and less than 20 is denoted as A) | A (a compound having 10 or more and less than 20 is denoted as A)
3 | CCO[C@@H]1C[C@H]2C(=O)NC3(CCCC3)C(=O)N(C)[C@@H](C3CCCC3)C(=O)N(C)[C@H](C(=O)N(C)CC)CC(=O)N(C)[C@@H](CC(C)C)C(=O)N[C@@H]([C@@H](C)CC)C(=O)N(C)CC(=O)N(C)[C@H]3C/C=C\CCN(C3=O)[C@@H](Cc3ccc(C(F)(F)F)cc3)C(=O)N(C)CC(=O)N[C@@H](CCc3cc(F)c(C(F)(F)F)c(F)c3)C(=O)N2C1 [PP1574, (2S,8S,12R,14S,20S,23S,27S,30S,36S,38Z)-20-cyclopentyl-8-[2-[3,5-difluoro-4-(trifluoromethyl)phenyl]ethyl]-12-ethoxy-N-ethyl-27-isobutyl-N,4,19,22,26,32,35-heptamethyl-30-[(1S)-1-methylpropyl]-3,6,9,15,18,21,25,28,31,34,42-undecaoxo-2-[[4-(trifluoromethyl)phenyl]methyl]spiro[1,4,7,10,16,19,22,26,29,32,35-undecazatricyclo[34.5.1.0^10,14]dotetracont-38-ene-17,1′-cyclopentane]-23-carboxamide] | 0.15 nM | A (a compound having 10 or more and less than 20 is denoted as A) | A (a compound having 10 or more and less than 20 is denoted as A)
4 | CCO[C@@H]1C[C@H]2C(=O)NC3(CC(C)(C)C3)C(=O)N(C)[C@@H](C3CCCC3)C(=O)N(C)[C@H](C(=O)N(C)CC)CC(=O)N(C)[C@@H](CC)C(=O)N[C@@H]([C@@H](C)CC)C(=O)N(C)CC(=O)N(C)[C@H]3C/C=C\CCN(C3=O)[C@@H](Cc3ccc(C(F)(F)F)cc3)C(=O)N(C)CC(=O)N[C@@H](CCc3cc(F)c(C(F)(F)F)c(F)c3)C(=O)N2C1 [PP1579] | 0.087 nM | A (a compound having 10 or more and less than 20 is denoted as A) | B (a compound having 3 or more and less than 10 is denoted as B)
5 | CCO[C@@H]1C[C@H]2C(=O)NC3(CC(F)(F)C3)C(=O)N(C)[C@@H](C3CCCC3)C(=O)N(C)C(C3CCCCC3)CC(=O)N(C)[C@@H](COC)C(=O)N[C@@H]([C@@H](C)CC)C(=O)N(C)CC(=O)N(C)[C@H]3C/C=C\CCN(C3=O)[C@@H](Cc3ccc(C(F)(F)F)cc3)C(=O)N(C)CC(=O)N[C@@H](CCc3cc(F)c(C(F)(F)F)c(F)c3)C(=O)N2C1 (stereo partly drawn) [PP1586] | 0.76 nM | A (a compound having 10 or more and less than 20 is denoted as A) | A (a compound having 10 or more and less than 20 is denoted as A)
6 | CCO[C@@H]1C[C@H]2C(=O)NC3(CCC3)C(=O)N(C)[C@@H](C(CC)CC)C(=O)N(C)C(C(C)C)CC(=O)N(C)[C@@H](CC)C(=O)N[C@@H]([C@@H](C)CC)C(=O)N(C)CC(=O)N(C)[C@H]3C/C=C\CCN(C3=O)[C@@H](Cc3ccc(C(F)(F)F)cc3)C(=O)N(C)CC(=O)N[C@@H](CCc3cc(F)c(C(F)(F)F)c(F)c3)C(=O)N2C1 (stereo partly drawn) [PP1589] | 1.8 nM | A (a compound having 10 or more and less than 20 is denoted as A) | A (a compound having 10 or more and less than 20 is denoted as A)

Further compounds by falling Kd [1], results first:

Row | Kd [1] | Compound | NRAS/KRAS (ratio of KD value for NRAS to KD value for KRAS) [2] | HRAS/KRAS (ratio of KD value for HRAS to KD value for KRAS) [3]
7 | 0.56 nM | CCO[C@@H]1C[C@H]2C(=O)NC3(CCC3)C(=O)N(C)[C@@H](C3CCCC3)C(=O)N(C)[C@H](C3CCCCC3)CC(=O)N(C)[C@@H](COC)C(=O)N[C@@H]([C@@H](C)CC)C(=O)N(C)CC(=O)N(C)[C@H]3C/C=C\CCN(C3=O)[C@@H](Cc3ccc(C(F)(F)F)cc3)C(=O)N(C)CC(=O)N[C@@H](CCc3cc(F)c(C(F)(F)F)c(F)c3)C(=O)N2C1 [PP1584] | B (a compound having 3 or more and less than 10 is denoted as B) | B (a compound having 3 or more and less than 10 is denoted as B)
8 | 0.55 nM | CCCOC[C@H]1C(=O)N[C@@H]([C@@H](C)CC)C(=O)N(C)CC(=O)N(C)[C@H]2C/C=C\CCN(C2=O)[C@@H](Cc2ccc(C(F)(F)F)cc2)C(=O)N(C)CC(=O)N[C@@H](CCc2cc(F)c(C(F)(F)F)c(F)c2)C(=O)N2C[C@H](OCC)C[C@H]2C(=O)NC2(CC(C)(C)C2)C(=O)N(C)[C@@H](C2CCCC2)C(=O)N(C)[C@H](C(=O)N(CC)CC)CC(=O)N1C [PP1575] | B (a compound having 3 or more and less than 10 is denoted as B) | B (a compound having 3 or more and less than 10 is denoted as B)
9 | 0.11 nM | CCCOC[C@H]1C(=O)N[C@@H]([C@@H](C)CC)C(=O)N(C)CC(=O)N(C)[C@H]2C/C=C\CCN(C2=O)[C@@H](Cc2ccc(C(F)(F)F)cc2)C(=O)N(C)CC(=O)N[C@@H](CCc2cc(F)c(C(F)(F)F)c(F)c2)C(=O)N2C[C@H](OCC)C[C@H]2C(=O)NC2(CCC2)C(=O)N(C)[C@@H](C2CCCC2)C(=O)N(C)[C@H](C(=O)N(C)CC)CC(=O)N1C [PP1569] | A (a compound having 10 or more and less than 20 is denoted as A) | B (a compound having 3 or more and less than 10 is denoted as B)
10 | 0.051 nM | CC[C@H](C)[C@@H]1NC(=O)[C@H](CC2CC2)N(C)C(=O)C[C@@H](C(=O)N(C)CC)N(C)C(=O)[C@H](C2CCCC2)N(C)C(=O)C2(CC(C)(C)C2)NC(=O)[C@@H]2C[C@@H](F)CN2C(=O)[C@H](CCc2cc(F)c(C(F)(F)F)c(F)c2)NC(=O)CN(C)C(=O)[C@H](Cc2ccc(C(F)(F)F)cc2)N2CC/C=C\C[C@@H](C2=O)N(C)C(=O)CN(C)C1=O [PP1570] | AA (a compound having 20 or more is denoted as AA) | A (a compound having 10 or more and less than 20 is denoted as A)
11 | 0.031 nM | CCO[C@@H]1C[C@H]2C(=O)NC3(CC(C)(C)C3)C(=O)N(C)[C@@H](C3CCCC3)C(=O)N(C)[C@H](C(=O)N(C)C)CC(=O)N(C)[C@@H](CC3CC3)C(=O)N[C@@H]([C@@H](C)CC)C(=O)N(C)CC(=O)N(C)[C@H]3C/C=C\CCN(C3=O)[C@@H](Cc3ccc(C(F)(F)F)cc3)C(=O)N(C)CC(=O)N[C@@H](CCc3cc(F)c(C(F)(F)F)c(F)c3)C(=O)N2C1 [PP1568] | A (a compound having 10 or more and less than 20 is denoted as A) | A (a compound having 10 or more and less than 20 is denoted as A)
